# EPA's ToxValDB 9.5
# Experiments:
# [1] = tested on: Rattus norvegicus; details: subchronic; duration: 90 days; oral; diet; M; Crl:CD(SD) BR; Body Weight Changes: Weight gain decrease + Absolute Organ Weight: Liver increase + Relative Organ Weight: Liver increase + Histopathology: …
# [2] = tested on: Monkey; details: oral
# [3] = tested on: Oryctolagus sp.; details: acute, dermal; for LOAEL: duration: 1 days
# [4] = tested on: Bird; details: subchronic, duration: 8 week, oral, drinking water, M, Japanese quail
# [5] = tested on: Labeo boga; details: whole body
# [6] = tested on: Megascops sp.; details: oral
# [7] = tested on: Neovison sp.; details: repeat dose other; oral; Mink
# [8] = chronic, duration: 26 weeks, M, Cynomolgus, Body Weight: 12% decrease by week 10
# [9] = chronic, duration: 26 weeks, M, Cynomolgus, Endocrine: Significant decrease in serum TT4 (27-35%) and FT4 (30-38%)
# [10] = short-term, duration: 7 day, M, Medaka, liver IL-1Beta/Beta-actin mRNA ratio + liver IL-6/Beta-actin mRNA ratio
# [11] = short-term, duration: 21 day, M/F, mRNA expression levels of IgM in spleen + mRNA expression levels of IL-1 beta in spleen + mRNA expression levels of myd88 in spleen
compound,measurement,setting,value
O=C([O-])C(F)(F)C(F)(F)C(F)(F)C(F)(F)C(F)(F)C(F)(F)C(F)(F)F.[NH4+] [Ammonium perfluorooctanoate],NOAEL,[1],0.096 mg/kg-day
same,LOAEL,[2]; [8],20 mg/kg-day
same,NOAEL,[2]; [8],10 mg/kg-day
same,LOAEL,[2]; [9],10 mg/kg-day
same,NOAEL,[2]; [9],3 mg/kg-day
same,LOAEL,"[2]; chronic, duration: 26 weeks, M, Cynomolgus, Hepatic: 36% increase in absolute liver weight at ?3 mg/kg/day / increased serum triglyceride levels at 30/20 mg/kg/day",3 mg/kg-day
same,NOAEL,"[2]; chronic, duration: 26 weeks, M, Cynomolgus, Immunotoxicological: No histological alterations + Neurological: No histological alterations + Reproductive: No histological alterations",20 mg/kg-day
same,LOAEL,"[2]; short-term, duration: 2 weeks, M/F, Rhesus, Death: Unspecified number out of four died on week 2",100 mg/kg-day
same,NOAEL,"[2]; subchronic, duration: 30 days, M, Cynomolgus, Endocrine: No alterations in serum levels of thyroid hormones and TSH and histopathology of adrenals + Reproductive: No alterations in serum…",20 mg/kg-day
same,NOAEL,"[2]; subchronic, duration: 90 days, M/F, Rhesus",30 mg/kg-day
same,LOAEL,"[2]; subchronic, duration: 90 days, M/F, Rhesus, Body Weight: 33% body weight loss by week 6 + Death: One male and two females died during weeks 7-12",30 mg/kg-day
same,NOAEL,"[2]; subchronic, duration: 90 days, M/F, Rhesus, Body Weight: 33% body weight loss by week 6 + Gastrointestinal: Emesis + Immunotoxicological: Atrophy of lymphoid follicles in spleen and …",10 mg/kg-day
same,LOAEL,"[2]; subchronic, duration: 90 days, M/F, Rhesus, Gastrointestinal: Emesis + Immunotoxicological: Atrophy of lymphoid follicles in spleen and lymph nodes + Neurological: Hypoactivity and …",30 mg/kg-day
same,NOAEL,"[2]; subchronic, duration: 90 days, M/F, Rhesus, Reproductive: No histological alterations in testes or ovaries",100 mg/kg-day
same,LOAEL,"[3]; Albino, Ocular: Moderate eye irritation",100 mg
same,LOAEL,"[3]; M, New Zealand, Death: 14-day LD50",4300 mg/kg-day
same,NOAEL,"[3]; duration: 24 hours, Albino",500 mg
same,LOEL,[4]; PHA skin test (DTH response),2.1 mg/kg-day
same,NOEL,[4]; PHA skin test (DTH response),0.2 mg/kg-day
same,NOEL,[4]; bacteremia (subsequent to E. coli challenge) + cellulitis (subsequent to E. coli challenge) + chemiluminescence of ROS produced by innate …,2.1 mg/kg-day
same,LOEL,[5]; [10],50 mg/L
same,NOEL,[5]; [10],10 mg/L
same,LOEL,"[5]; short-term, duration: 7 day, M, Medaka, liver TNF-alpha/Beta-actin mRNA ratio",10 mg/L
same,LOEL,"[5]; short-term, duration: 15 day, M/F, Medaka, c-type lysozyme mRNA expression",1 mg/L
same,NOEL,"[5]; short-term, duration: 15 day, M/F, Medaka, complement component C3-1 mRNA expression",1 mg/L
same,LOEL,"[5]; short-term, duration: 21 day, M/F, Atlantic Salmon, cortisol",0.1 mg/L
same,LOEL,"[5]; short-term, duration: 21 day, M/F, mRNA expression levels of IgD in spleen + mRNA expression levels of IgZ in spleen + mRNA expression levels of IL-21 in spleen + mRNA …",0.05 mg/L
same,LOEL,[5]; [11],0.1 mg/L
same,NOEL,[5]; [11],0.05 mg/L
same,LOEL,"[5]; subchronic, duration: 48 day, M/F, Atlantic Salmon, cortisol",0.1 mg/L
same,NOEL,"[5]; subchronic, duration: 48 day, M/F, Atlantic Salmon, fresh weight + length + thymus: thymus somatic index + thymus: thymus volume",0.1 mg/L
same,LOEL,"[5]; subchronic, duration: 56 day, M/F, Atlantic Salmon, cortisol",0.1 mg/L
[F-].[Na+] [Sodium fluoride],LOAEL,[6],32 mg/kg-day
same,NOAEL,[6],7.8 mg/kg-day
same,LOAEL,[7],52.8 mg/kg-day
same,NOAEL,[7],31.4 mg/kg-day
